# From patent US20240208957A1, “TRIAZINE DERIVATIVE AS REVERSIBLE AND IRREVERSIBLE COVALENT INHIBITORS OF PI3K” (UNIVERSITÄT BASEL, priority 2021, published 2024)
# pIC50, pKi: −log10 of the molar value. Read-outs that look alike come from different tables or passages of the source.
# What was measured:
# [1] = Intrinsic reactivity of the inhibitors with βME measured with HPLC; type: physicochemical; conditions: 1 mM inhibitor + 600 mM βME, n = 3, mean
# Excerpt: E˜I→EI • ii) off-target reactions with ubiquitous sulfhydryls (S) and other nucleophils present in physiologic environments such as cells and body fluids are driven by the intrinsic reactivity of the warhead that is defined by Kchem driving the conversion of S and I to form the sulfhydryl-adduct (SI) [table]
# [2] = biological target: p110α (PI3Kα) (Homo sapiens, UniProt P42336); assay: LanthaScreen determination of kinetic constants (kinact, Ki) for p110α; type: binding; conditions: for pKi: dissociation constant of the first reversible binding, mean of 3; for kinact: read-out: kinact PI3Kα;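 as to all read-outs here: covalent inhibition constants for p110α come from LanthaScreen data, fitted globally by numerical integration in KinTek Global Kinetic Explorer software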
# [3] = test system: pSer473 of PKB/Akt in SKOV3 cells; assay: In-Cell Western cellular PI3K signaling, pSer473 of PKB/Akt in SKOV3 cells; type: cell-based; conditions: Homo sapiens
# Experimental: Protein phosphorylation was detected as follows: pSer473 of PKB/Akt with rabbit polyclonal antibody from Cell Signaling Technology (CST) (#4058) by In-Cell Western assays, where 1.2×10^4 SKOV3 cells/well in 96-well plates were plated (Cell Carrier, PerkinElmer) for 24 hours (37° C., 5% CO2), as described in Ref.^21.
# [4] = SK-OV-3, read-out: IC50 pPKB (S473) SKOV3
# [5] = SK-OV-3, SKOV3 cells, mean of 2 or 3 independent measurements, read-out: IC50 pPKB (S473) SKOV3
# [6] = mean of 3 independent measurements, global fitting with KinTek
# Sequence of p110α (PI3Kα) (P42336 whole entry): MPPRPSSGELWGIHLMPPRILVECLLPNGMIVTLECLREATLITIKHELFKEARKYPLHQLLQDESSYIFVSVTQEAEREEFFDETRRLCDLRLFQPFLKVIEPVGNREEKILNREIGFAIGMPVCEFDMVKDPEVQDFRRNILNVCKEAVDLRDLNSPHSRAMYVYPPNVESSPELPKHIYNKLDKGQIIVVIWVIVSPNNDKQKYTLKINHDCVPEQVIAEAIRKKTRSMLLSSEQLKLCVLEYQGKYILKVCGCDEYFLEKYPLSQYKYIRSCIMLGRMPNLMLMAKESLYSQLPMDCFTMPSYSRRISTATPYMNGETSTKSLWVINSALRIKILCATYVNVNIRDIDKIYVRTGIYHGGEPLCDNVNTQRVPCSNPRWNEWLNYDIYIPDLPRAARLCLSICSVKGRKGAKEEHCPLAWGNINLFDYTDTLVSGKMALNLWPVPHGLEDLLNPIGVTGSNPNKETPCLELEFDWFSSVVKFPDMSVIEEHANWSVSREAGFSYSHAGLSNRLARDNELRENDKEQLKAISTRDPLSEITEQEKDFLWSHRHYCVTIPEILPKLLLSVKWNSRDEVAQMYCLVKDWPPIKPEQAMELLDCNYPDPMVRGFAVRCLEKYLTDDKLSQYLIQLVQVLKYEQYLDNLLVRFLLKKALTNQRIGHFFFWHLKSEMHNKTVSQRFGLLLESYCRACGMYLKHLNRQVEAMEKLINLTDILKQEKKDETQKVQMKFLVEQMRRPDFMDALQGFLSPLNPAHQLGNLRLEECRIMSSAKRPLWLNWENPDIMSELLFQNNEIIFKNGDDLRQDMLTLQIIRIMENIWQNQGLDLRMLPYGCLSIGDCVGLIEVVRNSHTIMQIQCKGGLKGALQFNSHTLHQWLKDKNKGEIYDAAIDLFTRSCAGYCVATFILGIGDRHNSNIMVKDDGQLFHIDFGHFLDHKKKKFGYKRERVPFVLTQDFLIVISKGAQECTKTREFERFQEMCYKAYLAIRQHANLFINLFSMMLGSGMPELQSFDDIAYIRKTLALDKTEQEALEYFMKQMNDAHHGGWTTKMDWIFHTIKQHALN
# Sequence of p110α (PI3Kα) (P27986 whole entry partner): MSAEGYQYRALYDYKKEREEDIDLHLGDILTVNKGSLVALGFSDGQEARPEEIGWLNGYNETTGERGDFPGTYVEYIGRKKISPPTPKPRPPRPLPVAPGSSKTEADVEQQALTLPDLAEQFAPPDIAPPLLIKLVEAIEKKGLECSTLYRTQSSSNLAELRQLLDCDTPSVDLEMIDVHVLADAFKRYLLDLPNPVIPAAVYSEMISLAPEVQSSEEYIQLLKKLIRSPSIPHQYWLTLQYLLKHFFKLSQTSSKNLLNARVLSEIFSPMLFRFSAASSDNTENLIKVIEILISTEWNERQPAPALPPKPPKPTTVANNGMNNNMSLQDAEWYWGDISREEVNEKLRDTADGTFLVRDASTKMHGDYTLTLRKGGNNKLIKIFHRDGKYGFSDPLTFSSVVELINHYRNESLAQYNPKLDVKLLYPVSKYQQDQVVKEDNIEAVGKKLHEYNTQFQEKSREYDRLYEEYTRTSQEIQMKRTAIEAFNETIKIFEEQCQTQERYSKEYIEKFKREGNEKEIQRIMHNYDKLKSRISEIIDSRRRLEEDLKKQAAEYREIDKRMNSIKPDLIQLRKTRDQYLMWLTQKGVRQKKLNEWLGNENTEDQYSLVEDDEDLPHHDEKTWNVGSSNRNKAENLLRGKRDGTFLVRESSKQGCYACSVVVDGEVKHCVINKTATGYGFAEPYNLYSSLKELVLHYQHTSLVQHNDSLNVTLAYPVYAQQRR
pKi [2],"pIC50 [3, 5]","kinact/KI ([2]; PI3Kα, read-out: kinact/Ki)","kinact [2, 6]",SMILES,kchem [1],kinact/KI [2],kinact [2],"pIC50 [3, 4]"
8.24,7.53,54000 M⁻¹ s⁻¹,0.000309 s⁻¹,"C=CC(=O)N1CCCC[C@H]1C(=O)N(C)CC(=O)N1CCN(c2nc(-c3cnc(N)nc3C(F)F)nc(N3CCOCC3)n2)CC1 [Compound 22, (S)-1-acryloyl-N-(2-(4-(4-(2-amino-4-(difluoromethyl)pyrimidin-5-yl)-6-morpholino-1,3,5-triazin-2-yl)piperazin-1-yl)-2-oxoethyl)-N-methylpiperidine-2-carboxamide]",0.00094 M⁻¹ s⁻¹,–,–,–
8.28,6.64,150000 M⁻¹ s⁻¹,0.000789 s⁻¹,"C=CC(=O)N1CC[C@H](C(=O)N(C)CC(=O)N2CCN(c3nc(-c4cnc(N)nc4C(F)F)nc(N4CCOCC4)n3)CC2)C1 [Compound 26, (S)-1-acryloyl-N-(2-(4-(4-(2-amino-4-(difluoromethyl)pyrimidin-5-yl)-6-morpholino-1,3,5-triazin-2-yl)piperazin-1-yl)-2-oxoethyl)-N-methylpyrrolidine-3-carboxamide]",0.0005 M⁻¹ s⁻¹,–,–,–
8.41,7.56,914000 M⁻¹ s⁻¹,0.00356 s⁻¹,"C=CC(=O)N1CCC[C@@H](C(=O)NCC(=O)N2CCN(c3nc(-c4cnc(N)nc4C(F)F)nc(N4CCOCC4)n3)CC2)C1 [Compound 16, (R)-1-acryloyl-N-(2-(4-(4-(2-amino-4-(difluoromethyl)pyrimidin-5-yl)-6-morpholino-1,3,5-triazin-2-yl)piperazin-1-yl)-2-oxoethyl)piperidine-3-carboxamide]",0.00076 M⁻¹ s⁻¹,–,–,–
–,6.35,–,–,"C=CC(=O)N1CCC[C@@H]1C(=O)N(C)CC(=O)N1CCN(c2nc(-c3cnc(N)nc3C(F)F)nc(N3CCOCC3)n2)CC1 [Compound 31, (R)-1-acryloyl-N-(2-(4-(4-(2-amino-4-(difluoromethyl)pyrimidin-5-yl)-6-morpholino-1,3,5-triazin-2-yl)piperazin-1-yl)-2-oxoethyl)-N-methylpyrrolidine-2-carboxamide]",0.00052 M⁻¹ s⁻¹,–,–,–
8.44,6.88,151000 M⁻¹ s⁻¹,0.000547 s⁻¹,"C=CC(=O)N1CCC[C@H](C(=O)NCC(=O)N2CCN(c3nc(-c4cnc(N)nc4C(F)F)nc(N4CCOCC4)n3)CC2)C1 [Compound 15, (S)-1-acryloyl-N-(2-(4-(4-(2-amino-4-(difluoromethyl)pyrimidin-5-yl)-6-morpholino-1,3,5-triazin-2-yl)piperazin-1-yl)-2-oxoethyl)piperidine-3-carboxamide]",0.00073 M⁻¹ s⁻¹,–,–,–
–,6.71,–,–,"C=CC(=O)N1CC(C(=O)N(C)CCC(=O)N2CCN(c3nc(-c4cnc(N)nc4C(F)F)nc(N4CCOCC4)n3)CC2)C1 [Compound 37, 1-acryloyl-N-(3-(4-(4-(2-amino-4-(difluoromethyl)pyrimidin-5-yl)-6-morpholino-1,3,5-triazin-2-yl)piperazin-1-yl)-3-oxopropyl)-N-methylazetidine-3-carboxamide]",0.00636 M⁻¹ s⁻¹,–,–,–
8.07,7.22,27200 M⁻¹ s⁻¹,0.000231 s⁻¹,"C=CC(=O)N1CCCC[C@@H]1C(=O)N(C)CC(=O)N1CCN(c2nc(-c3cnc(N)nc3C(F)F)nc(N3CCOCC3)n2)CC1 [Compound 23, (R)-1-acryloyl-N-(2-(4-(4-(2-amino-4-(difluoromethyl)pyrimidin-5-yl)-6-morpholino-1,3,5-triazin-2-yl)piperazin-1-yl)-2-oxoethyl)-N-methylpiperidine-2-carboxamide]",0.001 M⁻¹ s⁻¹,–,–,–
8.20,6.52,44500 M⁻¹ s⁻¹,0.000281 s⁻¹,"C=CC(=O)N1CCC[C@H]1C(=O)NCC(=O)N1CCN(c2nc(-c3cnc(N)nc3C(F)F)nc(N3CCOCC3)n2)CC1 [Compound 28, (S)-1-acryloyl-N-(2-(4-(4-(2-amino-4-(difluoromethyl)pyrimidin-5-yl)-6-morpholino-1,3,5-triazin-2-yl)piperazin-1-yl)-2-oxoethyl)pyrrolidine-2-carboxamide]",0.00655 M⁻¹ s⁻¹,–,–,–
–,6.76,–,–,"C=CC(=O)N1CC(C(=O)NCC(=O)N2CCN(c3nc(-c4cnc(N)nc4C(F)F)nc(N4CCOCC4)n3)CC2)C1 [Compound 32, 1-acryloyl-N-(2-(4-(4-(2-amino-4-(difluoromethyl)pyrimidin-5-yl)-6-morpholino-1,3,5-triazin-2-yl)piperazin-1-yl)-2-oxoethyl)azetidine-3-carboxamide]",0.00517 M⁻¹ s⁻¹,–,–,–
–,7.09,–,–,"C=CC(=O)N1CCC(C(=O)NCC(=O)N2CCN(c3nc(-c4cnc(N)nc4C(F)F)nc(N4CCOCC4)n3)CC2)CC1 [Compound 44, 1-acryloyl-N-(2-(4-(4-(2-amino-4-(difluoromethyl)pyrimidin-5-yl)-6-morpholino-1,3,5-triazin-2-yl)piperazin-1-yl)-2-oxoethyl)piperidine-4-carboxamide]",0.00037 M⁻¹ s⁻¹,–,–,–
–,7.07,–,–,"C=CC(=O)N1CCC(C(=O)N(C)CC(=O)N2CCN(c3nc(-c4cnc(N)nc4C(F)F)nc(N4CCOCC4)n3)CC2)CC1 [Compound 45, 1-acryloyl-N-(2-(4-(4-(2-amino-4-(difluoromethyl)pyrimidin-5-yl)-6-morpholino-1,3,5-triazin-2-yl)piperazin-1-yl)-2-oxoethyl)-N-methylpiperidine-4-carboxamide]",0.000354 M⁻¹ s⁻¹,–,–,–
–,–,–,–,"C=CC(=O)N1CCC[C@H]1C(=O)N(C)CC(=O)N1CCN(c2nc(-c3cnc(N)nc3C(F)F)nc(N3CCOCC3)n2)CC1 [Compound 30, (S)-1-acryloyl-N-(2-(4-(4-(2-amino-4-(difluoromethyl)pyrimidin-5-yl)-6-morpholino-1,3,5-triazin-2-yl)piperazin-1-yl)-2-oxoethyl)-N-methylpyrrolidine-2-carboxamide]",0.00058 M⁻¹ s⁻¹,–,–,–

SMILES,pKi [2],"pIC50 [3, 5]","kinact/KI ([2]; PI3Kα, read-out: kinact/Ki)","kinact [2, 6]",kchem [1],kinact/KI [2],kinact [2],"pIC50 [3, 4]"
"C=CC(=O)N1CC[C@@H](C(=O)NCC(=O)N2CCN(c3nc(-c4cnc(N)nc4C(F)F)nc(N4CCOCC4)n3)CC2)C1 [Compound 25, (R)-1-acryloyl-N-(2-(4-(4-(2-amino-4-(difluoromethyl)pyrimidin-5-yl)-6-morpholino-1,3,5-triazin-2-yl)piperazin-1-yl)-2-oxoethyl)pyrrolidine-3-carboxamide]",8.27,–,–,–,0.00062 M⁻¹ s⁻¹,961000 M⁻¹ s⁻¹,0.00514 s⁻¹,7.38
"C=CC(=O)N1CCC(CCCC(=O)N2CCN(c3nc(-c4cnc(N)nc4C(F)F)nc(N4CCOCC4)n3)CC2)CC1 [Compound 47, 4-(1-acryloylpiperidin-4-yl)-1-(4-(4-(2-amino-4-(difluoromethyl)pyrimidin-5-yl)-6-morpholino-1,3,5-triazin-2-yl)piperazin-1-yl)butan-1-one]",8.15,7.62,–,–,0.000225 M⁻¹ s⁻¹,70300 M⁻¹ s⁻¹,0.000504 s⁻¹,–
"C=CC(=O)N1CC(C(=O)N(C)CC(=O)N2CCN(c3nc(-c4cnc(N)nc4C(F)F)nc(N4CCOCC4)n3)CC2)C1 [Compound 33, 1-acryloyl-N-(2-(4-(4-(2-amino-4-(difluoromethyl)pyrimidin-5-yl)-6-morpholino-1,3,5-triazin-2-yl)piperazin-1-yl)-2-oxoethyl)-N-methylazetidine-3-carboxamide]",8.19,–,–,–,0.00581 M⁻¹ s⁻¹,1.17e+06 M⁻¹ s⁻¹,0.00757 s⁻¹,7.26
